Data: patent US20200096503A1, “CELL MEMBRANE COATED MAGNETIC NANOPARTICLES AND ASSAYS FOR IDENTIFICATION OF TRANSMEMBRANE PROTEIN-BINDING COMPOUNDS” (The Board of Trustees of The University of Alabama, priority 2018, published 2020)

Experiments:
TrkB receptors [1] = target: T1, TrkB receptors (Homo sapiens, UniProt Q16620); assay: Fishing experiments with CMNPs with immobilized TrkB receptors, artificial mixture; format: binding; conditions: equimolar (100 nM) mixture, HPLC-ESI-MS of washing and elution profiles
T1 construct: expressed in transfected cells; host or cells: SH-SY5Y neuroblastoma cells stably overexpressing TrkB
T1 sequence (Q16620 32-822): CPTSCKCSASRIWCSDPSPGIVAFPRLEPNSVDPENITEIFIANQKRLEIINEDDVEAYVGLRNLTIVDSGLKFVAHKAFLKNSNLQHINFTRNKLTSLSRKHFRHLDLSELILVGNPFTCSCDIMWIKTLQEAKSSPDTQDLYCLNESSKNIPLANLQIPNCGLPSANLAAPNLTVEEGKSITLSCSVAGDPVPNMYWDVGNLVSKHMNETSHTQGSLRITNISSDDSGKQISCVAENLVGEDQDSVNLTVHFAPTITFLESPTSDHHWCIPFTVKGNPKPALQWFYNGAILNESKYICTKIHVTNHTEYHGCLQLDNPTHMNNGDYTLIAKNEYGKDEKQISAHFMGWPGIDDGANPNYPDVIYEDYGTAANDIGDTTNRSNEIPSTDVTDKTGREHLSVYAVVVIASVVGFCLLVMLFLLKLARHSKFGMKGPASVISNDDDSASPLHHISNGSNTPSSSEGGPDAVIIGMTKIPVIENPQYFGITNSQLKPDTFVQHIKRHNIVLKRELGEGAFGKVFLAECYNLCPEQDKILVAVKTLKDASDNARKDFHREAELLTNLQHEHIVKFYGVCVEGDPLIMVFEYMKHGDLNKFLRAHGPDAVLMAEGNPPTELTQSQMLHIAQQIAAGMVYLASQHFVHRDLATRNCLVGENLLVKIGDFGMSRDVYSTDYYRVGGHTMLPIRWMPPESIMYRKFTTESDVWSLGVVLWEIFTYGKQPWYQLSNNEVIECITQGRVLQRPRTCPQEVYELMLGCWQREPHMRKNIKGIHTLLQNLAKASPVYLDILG
Description: Functional TrkB receptors (example of tyrosine kinase receptors) were immobilized on nanoparticles using the CMNPs technology described herein. Neuroblastoma SH-SY5Y cell line stably overexpressing TrkB receptors were used. Cell membrane fragments and nanoparticles used in the preparation of CMNPs were obtained using the previously optimized protocols, as described for the nicotinic receptors.
The fishing experiments were performed using the procedure previously optimized and described herein for nicotinic receptors. Washing and elution steps were performed using solvents previously reported for nicotinic receptor experiments. The difference between nicotinic and TrkB receptor experiments was with the type of artificial mixture components.

[2] = test system: negative control CMNPs prepared with the parental SH-SY5Y cell line without TrkB receptors; assay: Fishing with negative control CMNPs prepared with the parental SH-SY5Y cell line without TrkB receptors; format: binding
Text: The use of negative control CMNPs prepared with the parental SH-SY5Y cell line without TrkB receptors allowed discernment between specific and non-specific interactions. […] Compounds interacting only with CMNPs expressing TrkB receptors and not interacting with negative control CMNPs are specifically binding with TrkB receptors.

TrkB receptors [3] = target: T1, TrkB receptors; assay: Conversion of ATP to ADP by immobilized TrkB receptors on CMNPs (HPLC-ESI-MS); format: biochemical; conditions: for conversion of ATP to ADP by CMNPs with TrkB receptors: 5 mM ATP, 100 μM activator
Description: To further test the activity of the immobilized TrkB receptors, additional experiments that focused on determining the ability of the immobilized receptors to convert ATP to ADP were performed, a process commonly performed by all types of tyrosine kinase receptors. Tyrosine kinases, when active, convert ATP to ADP as they use phosphate groups to phosphorylate targeted proteins in the process of signal transduction inside a cell. […] 37° C.

nicotinic receptors = assay: Ligand fishing with CMNPs with immobilized nicotinic receptors, artificial mixture of known binders and non-binders; format: binding; conditions: equimolar (100 nM) artificial mixture; three washes with ammonium acetate buffer; elution buffer:methanol (9:1, v/v)
Description: Fishing experiments can be used to evaluate the CMNP assay. As an example, CMNPs were constructed with immobilized nicotinic receptors. Parameters include selectivity, detection limit, stability, and reuse of CMNPs. The assay or fishing experiment (FIG. 3A) involves magnetic separation of CMNPs with bound compounds after 20 min incubation in an artificial mixture of known binders and nonbinders. After 3 washes with buffer, receptor-bound compounds are released during the elution process. Eluted compounds can be analyzed by high-performance liquid chromatography coupled with diode-array detection and electrospray ionization tandem mass spectrometry (HPLC-DAD-MS).
(§1) Screening experiments can be conducted with samples of various level of complexity (artificial mixtures, natural extracts with known binders). First, artificial mixtures of known binders and non-binders can be used to evaluate selectivity. In a particular example, CMNPs containing nicotinic receptors were prepared. An artificial equimolar (100 nM) mixture of known binders and non-binders was also prepared. Known binders included known nicotinic receptor binders: nicotine (#1), anabasine (#2), cytisine (#3) and non-binders: butyrylcholine iodide (#4), berberine (#5), warfarin (#6) and caffeic acid (#7). First, the CMNPs (˜10^9) were placed in 0.5 mL artificial mixture and incubated. CMNPs were subsequently washed three times with ammonium acetate buffer. After washing, CMNPs were eluted with a buffer:methanol (9:1, v/v) mixture. In both the washing and elution steps, CMNPs were separated from supernatant using a magnet.

[4] = test system: CMNPs prepared using parental HEK cell line not expressing nicotinic receptors; assay: Fishing with negative control CMNPs prepared from parental HEK cell line not expressing nicotinic receptors; format: binding; conditions: fishing experiments, data not shown
Description: as §1
As an example, CMNPs containing nicotinic receptors were used to screen a different set of potential binders in a crude mixture: that of tobacco smoke condensates (FIG. 5). The results obtained with nicotinic receptor CMNPs were compared with those obtained for negative control CMNPs. […] Therefore, the only difference between nicotinic and negative control CMNPs is the absence of nicotinic receptors in control CMNPs. After three washes with ammonium acetate buffer, the CMNPs were eluted using first ammonium acetate buffer:methanol mixture (9:1, v/v; elutions 1-3), and then ammonium acetate buffer methanol mixture (1:9, v/v, elution 4).

Row | Structure (SMILES) | retention by CMNPs with immobilized nicotinic receptors (washing/elution, HPLC) (nicotinic receptors) | nonspecific binding to CMNPs from parental HEK cell line not expressing nicotinic receptors [4] | also measured
1 | O=c1cc(-c2ccccc2)oc2c(O)c(O)ccc12 [7,8-dihydroxyflavone] |  |  | retention by / interaction with CMNPs with immobilized TrkB receptors (TrkB receptors [1]): interacted only with CMNPs with TrkB receptors; retention by / interaction with CMNPs with immobilized TrkB receptors (TrkB receptors [1]; listed as 7,8-DHF): retained; interaction with negative control CMNPs without TrkB receptors [2]: no interaction; conversion of ATP to ADP by CMNPs with TrkB receptors (TrkB receptors [3]; 24-hour incubation, 4° C.): almost complete conversion of ATP to ADP; conversion of ATP to ADP by CMNPs with TrkB receptors (TrkB receptors [3]; 30 and 60 min, 37° C.): progressing conversion of ATP to ADP; conversion of ATP to ADP by nanoparticles themselves (structures inside CMNPs) (TrkB receptors [3]; nanoparticles without cell membrane, ATP (5 mM), activator 100 μM): did not lead to the conversion of ATP to ADP
2 | c1cncc([C@@H]2CCCCN2)c1 [anabasine] | selectively retained | lack of nonspecific binding | 
3 | COc1ccc2cc3[n+](cc2c1OC)CCc1cc2c(cc1-3)OCO2 [berberine] | absence |  | 
4 | CCCC(=O)OCC[N+](C)(C)C.[I-] [butyrylcholine, butyrylcholine iodide] | absence |  | 
5 | O=C(O)/C=C/c1ccc(O)c(O)c1 [caffeic acid] | absence |  | 
6 | O=c1cccc2n1C[C@@H]1CNC[C@H]2C1 [cytisine] | selectively retained | lack of nonspecific binding | 
7 | CN1CCCC1c1cccnc1 (stereo not drawn) [nicotine] | selectively retained | lack of nonspecific binding | retention by / interaction with CMNPs with immobilized TrkB receptors (TrkB receptors [1]): retained small amount; retention by / interaction with CMNPs with immobilized TrkB receptors (TrkB receptors [1]; listed as Nicotine): interacted both with CMNPs with and without TrkB receptors; interaction with negative control CMNPs without TrkB receptors [2]: interacted both with CMNPs with and without TrkB receptors
